One assay addresses T1, 5-lipoxygenase (Rattus norvegicus, UniProt P12527).
T1 construct: ARBL/ARBC Whole Cell 5-Lipoxygenase and Cyclooxygenase Assays; endogenous in cells; host or cells: RBL-1 rat basophilic leukemia cells (American Type Culture Collection)
T1 sequence (P12527 1-673): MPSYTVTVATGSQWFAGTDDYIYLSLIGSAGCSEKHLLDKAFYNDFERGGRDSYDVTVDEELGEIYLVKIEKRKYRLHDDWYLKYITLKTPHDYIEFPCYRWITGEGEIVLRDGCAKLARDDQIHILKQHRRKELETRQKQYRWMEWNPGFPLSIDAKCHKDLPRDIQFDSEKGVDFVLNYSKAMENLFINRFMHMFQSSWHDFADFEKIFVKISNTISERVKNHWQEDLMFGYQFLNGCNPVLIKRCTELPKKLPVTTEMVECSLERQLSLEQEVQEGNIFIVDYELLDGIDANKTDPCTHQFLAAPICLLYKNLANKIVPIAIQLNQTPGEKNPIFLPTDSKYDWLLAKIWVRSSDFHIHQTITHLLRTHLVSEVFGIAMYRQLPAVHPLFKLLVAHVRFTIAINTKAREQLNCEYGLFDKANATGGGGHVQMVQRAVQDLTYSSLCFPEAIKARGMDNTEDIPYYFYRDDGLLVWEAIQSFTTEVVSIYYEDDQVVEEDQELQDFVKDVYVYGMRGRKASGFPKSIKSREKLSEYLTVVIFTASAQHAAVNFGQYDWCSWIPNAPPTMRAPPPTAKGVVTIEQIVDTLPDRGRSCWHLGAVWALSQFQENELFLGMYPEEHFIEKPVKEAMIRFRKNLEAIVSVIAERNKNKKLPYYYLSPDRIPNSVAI
Nature of the assay: ARBL Whole Cell 5-Lipoxygenase Assay in RBL-1 cells (LTB4 RIA). The format is cell-based. The note with it: RBL-1 intact cell 5-lipoxygenase; A23187 5 μM. Here is the method: (§1) ARBL/ARBC Whole Cell 5-Lipoxygenase and Cyclooxygenase Assays
(§2) The rat basophilic leukemia cell line (RBL-1) was obtained from the American Type Culture Collection (Rockville, Md.).
(§3) Radioimmuno assay (RIA) kits of LTB4 and PGF2α were obtained from Amersham (Arlington Heights, Ill.) and Seragen (Boston, Mass.) respectively.
(§4) All tissue culture media were obtained from GIBO (Gran Island, N.Y.).
(§5) RBL-1 cells were grown in culture (suspension) in Eagle's minimum essential medium supplemented with 12% fetal bovine serum and 1:100 antibiotic-antimycotic mixture at 37° C. in an incubator supplied with air-5% carbon dioxide. Cells were harvested by centrifugation. They were washed with cold phosphate buffered saline pH 7.4 (PBS; NaCl, 7.1 g; Na2 HOP4, 1.15 g; KH2 PO4, 0.2 g; and KCl, 0.2 g/L). […] Calcium ionophore A23187 (5 μM) was added and cells were incubated for seven minutes at 37° C. The reaction was stopped by chilling the tubes in ice for ten minutes. Cells were separated by centrifugation and the supernatant was stored at -20°. Aliquots (100 μl) were analyzed for LTB4 and PGF2α using radioimmuno assay kits as provided by the supplier.

The target of assay [1] is T2, cyclooxygenase (Rattus norvegicus, UniProt Q63921).
T2 construct: RBL-1 intact cell cyclooxygenase IC50 values; endogenous in cells; host or cells: RBL-1 rat basophilic leukemia cells (American Type Culture Collection)
T2 sequence (Q63921 27-602): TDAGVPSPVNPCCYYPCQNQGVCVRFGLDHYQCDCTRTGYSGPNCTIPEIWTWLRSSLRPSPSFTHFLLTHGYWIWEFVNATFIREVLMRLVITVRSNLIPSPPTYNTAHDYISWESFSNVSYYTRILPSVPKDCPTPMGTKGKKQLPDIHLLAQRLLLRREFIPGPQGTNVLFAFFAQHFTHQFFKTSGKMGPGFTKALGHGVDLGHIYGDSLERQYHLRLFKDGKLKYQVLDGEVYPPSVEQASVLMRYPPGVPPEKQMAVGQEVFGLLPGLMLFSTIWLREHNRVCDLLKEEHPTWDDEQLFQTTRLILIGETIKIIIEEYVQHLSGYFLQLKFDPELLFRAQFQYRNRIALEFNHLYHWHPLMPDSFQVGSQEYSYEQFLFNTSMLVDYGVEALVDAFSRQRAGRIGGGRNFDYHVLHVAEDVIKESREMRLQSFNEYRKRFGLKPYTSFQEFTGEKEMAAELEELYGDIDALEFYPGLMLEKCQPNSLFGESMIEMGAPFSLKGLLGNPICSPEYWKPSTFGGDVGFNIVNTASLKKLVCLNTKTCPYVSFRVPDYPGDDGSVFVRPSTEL
As to the kind of experiment: ARBC Whole Cell Cyclooxygenase Assay in RBL-1 cells (PGF2α RIA). It is filed as cell-based. The note with it: RBL-1 intact cell cyclooxygenase; A23187 5 μM. As to the method: as §1, §2, §3, §4, §5

Assay [2] addresses T3, cyclooxygenase (Bos taurus, UniProt O62664).
T3 construct: The assay consists of incubating 2 mg bovine seminal vesicle powder; from tissue; host or cells: bovine seminal vesicle powder
T3 sequence (O62664 25-600): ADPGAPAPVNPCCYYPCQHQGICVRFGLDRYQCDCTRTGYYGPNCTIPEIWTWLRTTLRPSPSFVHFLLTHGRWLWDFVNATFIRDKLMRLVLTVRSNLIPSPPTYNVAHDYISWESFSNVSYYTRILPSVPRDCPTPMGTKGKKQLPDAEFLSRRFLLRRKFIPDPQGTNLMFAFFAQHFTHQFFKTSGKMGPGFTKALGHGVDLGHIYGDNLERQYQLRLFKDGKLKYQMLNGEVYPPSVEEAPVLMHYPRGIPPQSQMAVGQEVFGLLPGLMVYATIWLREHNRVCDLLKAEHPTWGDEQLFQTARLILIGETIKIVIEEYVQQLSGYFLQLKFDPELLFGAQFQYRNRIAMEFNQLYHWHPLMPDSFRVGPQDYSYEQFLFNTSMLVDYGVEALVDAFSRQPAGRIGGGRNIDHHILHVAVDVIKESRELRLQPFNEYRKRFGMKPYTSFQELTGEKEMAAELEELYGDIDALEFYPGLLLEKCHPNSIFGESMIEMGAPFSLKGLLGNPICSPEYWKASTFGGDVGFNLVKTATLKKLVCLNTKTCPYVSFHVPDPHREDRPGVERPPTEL
As to the kind of experiment: Cyclooxygenase Enzyme Assay, bovine seminal vesicle (BSV), PGE2 formation. The format is biochemical. The note with it: bovine seminal vesicle powder; 100 μM arachidonic acid, 20 minutes. As to the method: Cyclooxygenase Enzyme Assay
Additionally, inhibition of cyclooxygenase is considered a measure of relevance to the pathophysiology of the above noted diseases.
The assay consists of incubating 2 mg bovine seminal vesicle powder with 2 mM epinephrine, 2.5 mM reduced glutathione, 100 μM arachidonic acid, and the test agent for 20 minutes. The reaction mixture is acidified and extracted with ethyl acetate (3×1.0 ml) and the pooled extract is evaporated to dryness using a Speed Vac Concentrator or under a stream of nitrogen. The residue was dissolved in ethanol.

In the case of `Cc1cc(C=Cc2ccc(O)c(Cl)c2)n[nH]1` [Example 7, 3-[β-(4'-Hydroxy-3'-chlorophenyl)ethenyl]-5-methylpyrazole], the IC50 – broadly, the concentration that inhibits the measured activity by half – at 5-lipoxygenase turned out to be 9.5 µM; on cyclooxygenase [1] it was 6.8 µM; against cyclooxygenase [2], 34 µM.

As for `COc1cc(C=Cc2cc(C=Cc3ccc(O)c(OC)c3)[nH]n2)ccc1O` [Example 1, 3,5-Bis[β-(4'-hydroxy-3'-methoxyphenyl)ethenyl]pyrazole], the values for the IC50 against 5-lipoxygenase, on cyclooxygenase [1] and on cyclooxygenase [2] were 1.6 µM, 2.5 µM and 66 µM, respectively.

As for `COc1cc(C=Cc2cc(C)n[nH]2)ccc1O` [Example 5, 3-[β-(4'-Hydroxy-3'-methoxyphenyl)ethenyl]-5-methylpyrazole], the figures for the IC50 at 5-lipoxygenase, at cyclooxygenase [1] and at cyclooxygenase [2] were 0.8 µM, 13 µM and 33 µM, respectively.
